Reference: ChEMBL document CHEMBL3400086, “Thieno[2,3-b]pyridines as negative allosteric modulators of metabotropic GluR5 receptors: Lead optimization” (Bioorg Med Chem Lett, 2015)
pIC50, pKi: −log10 of the molar value.

Key:
[1] = target: T1, Metabotropic glutamate receptor 5 (Rattus norvegicus, UniProt P31424); assay: Displacement of [3H]-M-MPEP from rat cerebrocortical mGluR5 receptor
[2] = target: T1, Metabotropic glutamate receptor 5; assay: Negative allosteric modulation of mGlu5 receptor in primary E17 rat embryo neuron assessed as ca2+ level by fluo-4/AM assay
Liver microsome [3] = assay: Intrinsic clearance in Wistar rat liver microsomes measured per gram of tissue at 2.5 uM; assay type: ADME
Liver microsome [4] = assay: Intrinsic clearance in human liver microsomes measured per gram of tissue at 2.5 uM; assay type: ADME

T1 sequence (P31424 whole entry): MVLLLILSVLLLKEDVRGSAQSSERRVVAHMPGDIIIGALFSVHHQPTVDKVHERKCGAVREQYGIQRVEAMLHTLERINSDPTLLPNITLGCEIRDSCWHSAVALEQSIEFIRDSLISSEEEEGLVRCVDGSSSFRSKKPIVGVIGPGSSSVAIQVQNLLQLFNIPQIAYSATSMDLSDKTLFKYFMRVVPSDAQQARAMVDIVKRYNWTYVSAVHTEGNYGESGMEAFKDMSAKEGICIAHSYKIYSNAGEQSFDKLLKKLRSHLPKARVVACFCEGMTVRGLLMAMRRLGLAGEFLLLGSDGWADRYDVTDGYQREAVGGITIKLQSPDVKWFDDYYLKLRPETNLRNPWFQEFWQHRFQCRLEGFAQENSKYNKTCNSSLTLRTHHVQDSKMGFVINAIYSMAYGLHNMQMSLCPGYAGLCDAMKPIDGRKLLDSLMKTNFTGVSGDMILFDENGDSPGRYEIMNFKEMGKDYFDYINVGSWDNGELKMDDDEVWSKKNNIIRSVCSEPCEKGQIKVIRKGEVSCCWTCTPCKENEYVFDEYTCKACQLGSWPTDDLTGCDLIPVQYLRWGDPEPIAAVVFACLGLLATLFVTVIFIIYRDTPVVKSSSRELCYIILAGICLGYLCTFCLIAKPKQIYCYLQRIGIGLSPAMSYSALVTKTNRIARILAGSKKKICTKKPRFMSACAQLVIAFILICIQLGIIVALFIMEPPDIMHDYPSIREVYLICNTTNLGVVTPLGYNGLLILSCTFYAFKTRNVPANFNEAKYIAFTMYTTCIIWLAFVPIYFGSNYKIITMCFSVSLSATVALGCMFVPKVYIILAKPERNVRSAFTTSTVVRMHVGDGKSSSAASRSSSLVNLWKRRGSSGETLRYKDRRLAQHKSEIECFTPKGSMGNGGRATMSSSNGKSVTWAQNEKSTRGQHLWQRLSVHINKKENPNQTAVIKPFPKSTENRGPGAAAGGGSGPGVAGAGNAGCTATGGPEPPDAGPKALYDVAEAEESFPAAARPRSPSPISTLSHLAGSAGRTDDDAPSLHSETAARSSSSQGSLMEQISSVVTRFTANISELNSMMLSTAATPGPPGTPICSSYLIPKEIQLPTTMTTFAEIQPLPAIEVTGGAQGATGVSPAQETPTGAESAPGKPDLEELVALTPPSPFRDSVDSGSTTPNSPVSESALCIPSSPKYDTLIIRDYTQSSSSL

pKi [1]	pIC50 [2]	CLH (Liver microsome [3])	CLH (Liver microsome [4])	Compound
7.43	6.90	1.8 mL/min/g	1.7 mL/min/g	Nc1cnc2sc(S(=O)(=O)c3ccc(Cl)cc3)c(-c3cccc(F)c3)c2c1
8.38		0.01 mL/min/g	0.01 mL/min/g	N#Cc1cccc(S(=O)(=O)c2sc3ncc(N)cc3c2-c2cccc(F)c2)c1
8.62	8.21	1.04 mL/min/g	0.8 mL/min/g	N#Cc1cc(F)cc(S(=O)(=O)c2sc3ncc(N)cc3c2-c2cc(F)cc(F)c2)c1
7.08	6.43	0.5 mL/min/g	0.01 mL/min/g	Nc1ccc2c(-c3ccc(Cl)cc3)c(S(=O)(=O)c3ccc(Cl)cc3)sc2n1
7.36	7.36	0.5 mL/min/g	0.3 mL/min/g	N#Cc1cc(F)cc(S(=O)(=O)c2sc3ncc(N)cc3c2-c2ccncc2F)c1
7.44				O=S(=O)(c1cc(F)cc(F)c1)c1sc2ncccc2c1-c1ccc(Cl)cc1
8.52		17.3 mL/min/g	3.3 mL/min/g	Cc1ccc(-c2c(S(=O)(=O)c3cccc(C#N)c3)sc3ncccc23)cc1
7.41	7.34	1.1 mL/min/g	0.4 mL/min/g	N#Cc1cccc(S(=O)(=O)c2sc3nc(O)ccc3c2-c2ccc(Cl)cc2)c1
7.16	6.44	2.8 mL/min/g	0.01 mL/min/g	O=S(=O)(c1ccc(Cl)cc1)c1sc2ncc(Cl)cc2c1-c1ccc(Cl)cc1
7.83		10.1 mL/min/g	2.9 mL/min/g	Nc1ccnc2sc(S(=O)(=O)c3ccc(Cl)cc3)c(-c3ccc(Cl)cc3)c12
7.59	6.76	3.8 mL/min/g	0.1 mL/min/g	O=S(=O)(c1ccc(Cl)cc1)c1sc2nc(F)ccc2c1-c1ccc(Cl)cc1
7.57		11.1 mL/min/g	3.3 mL/min/g	O=S(=O)(c1ccc(Cl)cc1)c1sc2ncccc2c1-c1ccc(F)cc1F
7.22	6.47	0.9 mL/min/g	0.04 mL/min/g	O=S(=O)(c1ccc(Cl)cc1)c1sc2nc(O)ccc2c1-c1ccc(Cl)cc1
8.04				O=C(Nc1cccc(Cl)c1)O/N=C1\CCCCC1Cc1cccs1 (stereo not given)
7.70		2.1 mL/min/g	0.6 mL/min/g	N#Cc1cc(F)cc(S(=O)(=O)c2sc3nc(Cl)ccc3c2-c2ccc(F)cc2)c1
8.35		9.6 mL/min/g	2.1 mL/min/g	N#Cc1cccc(S(=O)(=O)c2sc3ncccc3c2-c2ccc(F)cc2)c1
7.84		0.01 mL/min/g	0.01 mL/min/g	N#Cc1cccc(S(=O)(=O)c2sc3ncc(N)cc3c2-c2cccc(Cl)c2)c1
7.03	5.99	3.4 mL/min/g	0.01 mL/min/g	O=S(=O)(c1ccc(Cl)cc1)c1sc2nc(Cl)ccc2c1-c1ccc(Cl)cc1
6.67		12.1 mL/min/g	3.6 mL/min/g	O=S(=O)(c1ccc(Cl)cc1)c1sc2nccc(F)c2c1-c1ccc(Cl)cc1
7.44				N#Cc1ccc(S(=O)(=O)c2sc3ncccc3c2-c2ccc(Cl)cc2)cc1
7.62				Cc1cc(C)cc(S(=O)(=O)c2sc3ncccc3c2-c2ccc(Cl)cc2)c1
6.78		1.1 mL/min/g	0.4 mL/min/g	CS(=O)(=O)Nc1cnc2sc(S(=O)(=O)c3ccc(Cl)cc3)c(-c3ccc(Cl)cc3)c2c1
8.06		3.8 mL/min/g	1.3 mL/min/g	N#Cc1cccc(S(=O)(=O)c2sc3ncc(N)cc3c2-c2ccc(F)cc2)c1
8.08	7.32	1.4 mL/min/g	1 mL/min/g	N#Cc1cccc(S(=O)(=O)c2sc3nc(F)ccc3c2-c2ccc(Cl)cc2)c1

pKi [1]	pIC50 [2]	CLH (Liver microsome [3])	CLH (Liver microsome [4])	Compound
8.03				Cc1cccc(S(=O)(=O)c2sc3ncccc3c2-c2ccc(Cl)cc2)c1
6.98				O=S(=O)(c1ccc(Cl)cc1Cl)c1sc2ncccc2c1-c1ccc(Cl)cc1
7.18				CC(C)c1ccc(S(=O)(=O)c2sc3ncccc3c2-c2ccc(Cl)cc2)cc1
7.72	7.11	0.7 mL/min/g	1.6 mL/min/g	Nc1cnc2sc(S(=O)(=O)c3ccc(Cl)cc3)c(-c3ccc(Cl)cc3)c2c1
8.39	7.52	12.8 mL/min/g	2.4 mL/min/g	N#Cc1cccc(S(=O)(=O)c2sc3ncccc3c2-c2ccc(Cl)cc2)c1
8.03	7.47	1 mL/min/g	1.1 mL/min/g	N#Cc1cc(F)cc(S(=O)(=O)c2sc3ncccc3c2-c2cnccc2Cl)c1
8.46		11.2 mL/min/g	3.2 mL/min/g	N#Cc1cccc(S(=O)(=O)c2sc3ncccc3c2-c2ccccc2Cl)c1
8.62	7.97	2.1 mL/min/g	2.1 mL/min/g	N#Cc1cc(F)cc(S(=O)(=O)c2sc3ncccc3c2-c2ccc(F)cc2)c1
7.72		0.8 mL/min/g	0.4 mL/min/g	N#Cc1cc(F)cc(S(=O)(=O)c2sc3ncc(N)cc3c2-c2c(F)cncc2F)c1
6.57				O=S(=O)(c1ccc(C(F)(F)F)cc1)c1sc2ncccc2c1-c1ccc(Cl)cc1
6.54				O=S(=O)(c1cccnc1)c1sc2ncccc2c1-c1ccc(Cl)cc1
8.05	7.96	2 mL/min/g	2.6 mL/min/g	N#Cc1cc(F)cc(S(=O)(=O)c2sc3ncccc3c2-c2cccc(Cl)c2)c1
8.55	7.85	2 mL/min/g	3.5 mL/min/g	N#Cc1cc(F)cc(S(=O)(=O)c2sc3nc(F)ccc3c2-c2ccc(F)cc2)c1
7.93				Cc1ccc(S(=O)(=O)c2sc3ncccc3c2-c2ccc(Cl)cc2)cc1F
7.81				O=S(=O)(c1ccc(F)cc1)c1sc2ncccc2c1-c1ccc(Cl)cc1
8.02				COc1cccc(S(=O)(=O)c2sc3ncccc3c2-c2ccc(Cl)cc2)c1
7.21		10.5 mL/min/g	2.6 mL/min/g	O=S(=O)(c1ccc(Cl)cc1)c1sc2ncccc2c1-c1cnccc1F
8.74		2.5 mL/min/g	0.6 mL/min/g	N#Cc1cccc(S(=O)(=O)c2sc3ncc(N)cc3c2-c2ccccc2F)c1
7.68	6.95	15.7 mL/min/g	3.9 mL/min/g	Cc1ccc(-c2c(S(=O)(=O)c3ccc(Cl)cc3)sc3ncccc23)cc1
8.70	7.74	3.4 mL/min/g	1.4 mL/min/g	N#Cc1cc(F)cc(S(=O)(=O)c2sc3ncccc3c2-c2ccc(Cl)cc2)c1
8.60	8.31	2.9 mL/min/g	0.6 mL/min/g	N#Cc1cc(F)cc(S(=O)(=O)c2sc3nc(F)ccc3c2-c2cccc(F)c2)c1
8.17				Cc1ccc(S(=O)(=O)c2sc3ncccc3c2-c2ccc(Cl)cc2)cc1Cl
7.24		2.8 mL/min/g	1.9 mL/min/g	Nc1cnc2sc(S(=O)(=O)c3ccc(Cl)cc3)c(-c3ccccc3F)c2c1
8.48				Cc1ccc(S(=O)(=O)c2sc3ncccc3c2-c2ccc(Cl)cc2)cc1C

pKi [1]	pIC50 [2]	CLH (Liver microsome [3])	CLH (Liver microsome [4])	Compound
7.84	7.35	10.8 mL/min/g	2.6 mL/min/g	N#Cc1cccc(S(=O)(=O)c2sc3ncccc3c2-c2cccc(Cl)c2)c1
7.97				O=S(=O)(c1ccc(Cl)c(Cl)c1)c1sc2ncccc2c1-c1ccc(Cl)cc1
6.19		2.6 mL/min/g	0.01 mL/min/g	COc1ccc2c(-c3ccc(Cl)cc3)c(S(=O)(=O)c3ccc(Cl)cc3)sc2n1
7.87	7.66	1 mL/min/g	0.9 mL/min/g	N#Cc1cc(F)cc(S(=O)(=O)c2sc3ncccc3c2-c2cnccc2F)c1
7.28				CN(C)c1ccc(S(=O)(=O)c2sc3ncccc3c2-c2ccc(Cl)cc2)cc1
7.80				O=S(=O)(c1cccc(Cl)c1)c1sc2ncccc2c1-c1ccc(Cl)cc1
8.05		0.4 mL/min/g	1.6 mL/min/g	N#Cc1cccc(S(=O)(=O)c2sc3ncc(N)cc3c2-c2ccc(Cl)cc2)c1
8.32		13.9 mL/min/g	1.9 mL/min/g	N#Cc1cccc(S(=O)(=O)c2sc3ncccc3c2-c2cccc(F)c2)c1
7.42	6.91	4.1 mL/min/g	2.3 mL/min/g	O=S(=O)(c1ccc(Cl)cc1)c1sc2ncccc2c1-c1cccc(F)c1
7.37				O=S(=O)(c1cccc(F)c1)c1sc2ncccc2c1-c1ccc(Cl)cc1
7.51		9.7 mL/min/g	2.5 mL/min/g	O=S(=O)(c1ccc(Cl)cc1)c1sc2ncccc2c1-c1ccc(Cl)c(Cl)c1
7.43		2.8 mL/min/g	1.3 mL/min/g	O=S(=O)(c1ccc(Cl)cc1)c1sc2ncccc2c1-c1cccc(Cl)c1
7.36		0.7 mL/min/g	1 mL/min/g	N#Cc1cc(F)cc(S(=O)(=O)c2sc3ncc(N)cc3c2-c2ccncc2Cl)c1
7.81				Cc1ccc(S(=O)(=O)c2sc3ncccc3c2-c2ccc(Cl)cc2)cc1
8.10				COc1ccc(S(=O)(=O)c2sc3ncccc3c2-c2ccc(Cl)cc2)cc1F
7.02				O=S(=O)(c1ccccc1)c1sc2ncccc2c1-c1ccc(Cl)cc1
7.39				O=S(=O)(c1cc(F)cc(C(F)(F)F)c1)c1sc2ncccc2c1-c1ccc(Cl)cc1
7.64		13.5 mL/min/g	2.7 mL/min/g	COc1ccc(-c2c(S(=O)(=O)c3cccc(C#N)c3)sc3ncccc23)cc1
7.70				COc1ccc(S(=O)(=O)c2sc3ncccc3c2-c2ccc(Cl)cc2)cc1
7.59		9.5 mL/min/g	3.8 mL/min/g	CN(C)c1ccnc2sc(S(=O)(=O)c3ccc(Cl)cc3)c(-c3ccc(Cl)cc3)c12
7.27				O=S(=O)(c1cccc(C(F)(F)F)c1)c1sc2ncccc2c1-c1ccc(Cl)cc1
	7.42	1.5 mL/min/g	0.9 mL/min/g	N#Cc1cc(F)cc(S(=O)(=O)c2sc3ncc(N)cc3c2-c2cccc(Cl)c2)c1
7.89		4.3 mL/min/g	3.7 mL/min/g	N#Cc1cc(F)cc(S(=O)(=O)c2sc3ncccc3c2-c2ccoc2)c1
6.91		1.7 mL/min/g	0.3 mL/min/g	O=S(=O)(c1ccc(Cl)cc1)c1sc2ncc(F)cc2c1-c1ccc(Cl)cc1
